This passage reports IC50 results from patent US11267845B2, “Inhibitors of CD73-mediated immunosuppression” (ARCUS BIOSCIENCES, INC., priority 2016, dated 2022).

For this test, the target named is T1, CD73 (Homo sapiens, UniProt P21589).
T1 sequence (P21589 27-549): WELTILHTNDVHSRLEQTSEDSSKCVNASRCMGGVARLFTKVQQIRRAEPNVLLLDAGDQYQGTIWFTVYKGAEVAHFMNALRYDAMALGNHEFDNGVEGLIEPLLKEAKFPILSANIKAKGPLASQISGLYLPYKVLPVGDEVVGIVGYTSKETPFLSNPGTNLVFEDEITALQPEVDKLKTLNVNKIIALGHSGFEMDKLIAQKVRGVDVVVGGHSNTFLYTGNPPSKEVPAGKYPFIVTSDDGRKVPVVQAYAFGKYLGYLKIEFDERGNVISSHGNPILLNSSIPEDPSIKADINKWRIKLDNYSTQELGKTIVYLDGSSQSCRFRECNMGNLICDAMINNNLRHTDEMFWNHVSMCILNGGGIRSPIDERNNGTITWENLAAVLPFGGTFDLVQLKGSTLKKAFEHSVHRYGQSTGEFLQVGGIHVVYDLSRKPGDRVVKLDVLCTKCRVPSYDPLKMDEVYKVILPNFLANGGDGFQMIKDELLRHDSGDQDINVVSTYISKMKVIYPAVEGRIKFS
In words: CD73 inhibition (Potency: CD73 IC50). The test is classed as biochemical.
As to `CN(C[C@H]1O[C@@H](n2cnc3c(NC4CCCC4)nc(Cl)nc32)[C@H](O)[C@@H]1O)C(=O)CP(=O)(O)O` [L], the IC50 was < 100 nM. As to `COCCOC(=O)OCOP(=O)(O)CC(=O)N(C)C[C@H]1O[C@@H](n2cnc3c(NC4CCCC4)nc(Cl)nc32)[C@H](O)[C@@H]1O` [AF], the IC50 is > 1000 nM. Regarding `CCOC(=O)OCOP(=O)(CC(=O)N(C)C[C@H]1O[C@@H](n2cnc3c(NC4CCCC4)nc(Cl)nc32)[C@H](O)[C@@H]1O)OCOC(=O)OCC` [Y], the IC50 is > 1000 nM. As for `CN(C[C@H]1O[C@@H](n2cnc3c(NC4CCCC4)nc(Cl)nc32)[C@H](O)[C@@H]1O)C(=O)CP(=O)(OCOC(=O)OCC(C)(C)C)OCOC(=O)OCC(C)(C)C` [AC], the figure is > 1000 nM; as for `O=C(CP(=O)(O)O)N(Cc1ccccc1)C[C@H]1O[C@@H](n2cnc3c(NC4CCCC4)nc(Cl)nc32)[C@H](O)[C@@H]1O` [D], < 100 nM.

With `CCOC(=O)OCOP(=O)(O)CC(=O)N(C)C[C@H]1O[C@@H](n2cnc3c(N[C@H]4CCOC4)nc(Cl)nc32)[C@H](O)[C@@H]1O` [AQ], the half-maximal inhibitory concentration (IC50) was > 1000 nM. As for `CN(C[C@H]1O[C@@H](n2cnc3c(NC4CCCC4)nc(Cl)nc32)[C@H](O)[C@@H]1O)C(=O)CP1(=O)OCc2ccccc2O1` (stereo partly drawn) [T], the figure is > 1000 nM; as for `CN(C[C@H]1O[C@@H](n2cnc3c(NC4CCCC4)nc(Cl)nc32)[C@H](O)[C@@H]1O)C(=O)CP(=O)(Oc1ccccc1)Oc1ccccc1` [U], > 1000 nM.

As for `CN(C[C@H]1O[C@@H](n2cnc3c(NC4CCCC4)nc(Cl)nc32)[C@@H](F)[C@@H]1O)C(=O)CP(=O)(O)O` [G], the IC50 was > 1000 nM. For `CC(C)OC(=O)[C@H](C)NP(=O)(CC(=O)N(C)C[C@H]1O[C@@H](n2cnc3c(NC4CCCC4)nc(Cl)nc32)[C@H](O)[C@@H]1O)Oc1ccccc1` (stereo partly drawn) [M], the IC50 is > 1000 nM. As for `CN(C[C@H]1O[C@@H](n2cnc3c(NC4CCCC4)nc(Cl)nc32)[C@H](O)[C@@H]1O)C(=O)CP1(=O)OCCC(c2cccc(Cl)c2)O1` (stereo partly drawn) [Q], the figure is > 1000 nM. As for `CN(c1nc(Cl)nc2c1ncn2[C@@H]1O[C@H](CN(CC2CC2)C(=O)CP(=O)(O)O)[C@@H](O)[C@H]1O)C1CCCC1` [I], the figure is < 100 nM; as for `CC(C)N(C[C@H]1O[C@@H](n2cnc3c(NC4CCCC4)nc(Cl)nc32)[C@H](O)[C@@H]1O)C(=O)CP(=O)(O)O` [B], 100 to 1000 nM.

Turning to `CC(C)OC(=O)OCOP(=O)(CC(=O)N(C)C[C@H]1O[C@@H](n2cnc3c(N[C@H]4CCOC4)nc(Cl)nc32)[C@H](O)[C@@H]1O)OCOC(=O)OC(C)C` [AM], the IC50 was > 1000 nM.

As for `CCOC(=O)OCOP(=O)(CC(=O)N(C)C[C@H]1O[C@@H](n2cnc3c(N[C@H]4CCOC4)nc(Cl)nc32)[C@H](O)[C@@H]1O)OCOC(=O)OCC` [AP], the concentration for half-maximal inhibition (IC50) is > 1000 nM. As for `CN(C[C@H]1O[C@@H](n2cnc3c(N[C@H]4CCOC4)nc(Cl)nc32)[C@H](O)[C@@H]1O)C(=O)CP(=O)(O)OCOC(=O)OCC(C)(C)C` [AS], the figure is > 1000 nM. As for `O=C(CP(=O)(O)O)N(CC1CC1)C[C@H]1O[C@@H](n2cnc3c(NC4CCCC4)nc(Cl)nc32)[C@H](O)[C@@H]1O` [AI], the figure is < 100 nM; as for `CN(C[C@H]1O[C@@H](n2cnc3c(N[C@H]4CCOC4)nc(Cl)nc32)[C@H](O)[C@@H]1O)C(=O)CP(=O)(OCOC(=O)OCC(C)(C)C)OCOC(=O)OCC(C)(C)C` [AR], > 1000 nM. As for `COC(=O)OCOP(=O)(O)CC(=O)N(C)C[C@H]1O[C@@H](n2cnc3c(NC4CCCC4)nc(Cl)nc32)[C@H](O)[C@@H]1O` [AB], the figure is > 1000 nM; as for `CN(C[C@H]1O[C@@H](n2cnc3c(N[C@H]4CCOC4)nc(Cl)nc32)[C@H](O)[C@@H]1O)C(=O)CP(=O)(O)O` [AL], 100 to 1000 nM. As to `O=C(CP(=O)(O)O)N(CCO)C[C@H]1O[C@@H](n2cnc3c(NC4CCCC4)nc(Cl)nc32)[C@H](O)[C@@H]1O` [F], the 50% inhibitory concentration (IC50) was < 100 nM. Turning to `CCN(C[C@H]1O[C@@H](n2cnc3c(NC4CCCC4)nc(Cl)nc32)[C@H](O)[C@@H]1O)C(=O)CP(=O)(O)O` [C], the IC50 was < 100 nM.

Regarding `COCCOC(=O)OCOP(=O)(CC(=O)N(C)C[C@H]1O[C@@H](n2cnc3c(N[C@H]4CCOC4)nc(Cl)nc32)[C@H](O)[C@@H]1O)OCOC(=O)OCCOC` [AO], the IC50 was > 1000 nM. As for `CC(C)OC(=O)OCOP(=O)(O)CC(=O)N(C)C[C@H]1O[C@@H](n2cnc3c(NC4CCCC4)nc(Cl)nc32)[C@H](O)[C@@H]1O` [X], the figure is > 1000 nM; as for `O=C(CP(=O)(O)O)N(CC1CC1)C[C@H]1O[C@@H](n2ncc3c(NC4CCCC4)nc(Cl)nc32)[C@H](O)[C@@H]1O` [K], < 100 nM. As for `Cc1cccc2c1NP(=O)(CC(=O)N(C)C[C@H]1O[C@@H](n3cnc4c(NC5CCCC5)nc(Cl)nc43)[C@H](O)[C@@H]1O)OC2` (stereo partly drawn) [S], the figure is > 1000 nM; as for `CN(C[C@H]1O[C@@H](n2cnc3c(NC4CCCC4)nc(Cl)nc32)[C@H](O)[C@@H]1O)C(=O)CP(=O)(O)OCOC(=O)C(C)(C)C` [AH], > 1000 nM; as for `CN(C[C@H]1O[C@@H](n2ncc3c(NC4CCCC4)nc(Cl)nc32)[C@H](O)[C@@H]1O)C(=O)CP(=O)(O)O` [J], 100 to 1000 nM. As for `CC(C)OC(=O)OCOP(=O)(CC(=O)N(CC1CC1)C[C@H]1O[C@@H](n2cnc3c(NC4CCCC4)nc(Cl)nc32)[C@H](O)[C@@H]1O)OCOC(=O)OC(C)C` [AJ], the figure is > 1000 nM; as for `CCOC(=O)OCOP(=O)(O)CC(=O)N(C)C[C@H]1O[C@@H](n2cnc3c(NC4CCCC4)nc(Cl)nc32)[C@H](O)[C@@H]1O` [Z], > 1000 nM. As to `CC(C)OC(=O)OCOP(=O)(O)CC(=O)N(CC1CC1)C[C@H]1O[C@@H](n2cnc3c(NC4CCCC4)nc(Cl)nc32)[C@H](O)[C@@H]1O` [AK], the concentration for half-maximal inhibition (IC50) was > 1000 nM.

Consider `COCCOC(=O)OCOP(=O)(CC(=O)N(C)C[C@H]1O[C@@H](n2cnc3c(NC4CCCC4)nc(Cl)nc32)[C@H](O)[C@@H]1O)OCOC(=O)OCCOC` [AE], for which the half-inhibitory concentration (IC50) is > 1000 nM. As for `CN(C[C@H]1O[C@@H](n2cnc3c(NC4CCCC4)nc(Cl)nc32)[C@H](O)[C@@H]1O)C(=O)CP(=O)(O)Oc1ccccc1` [V], the figure is > 1000 nM; as for `COC(=O)[C@H](C)NP(=O)(CC(=O)N(C)C[C@H]1O[C@@H](n2cnc3c(NC4CCCC4)nc(Cl)nc32)[C@H](O)[C@@H]1O)Oc1ccccc1` (stereo partly drawn) [N], > 1000 nM; as for `CN(C[C@H]1O[C@@H](n2cnc3c(NC4CCCC4)nc(Cl)nc32)[C@H](O)[C@@H]1O)C(=O)CP(=O)(O)OCOC(=O)OCC(C)(C)C` [AD], > 1000 nM. Take `CC(C)OC(=O)[C@H](C)NP(=O)(CC(=O)N(C)C[C@H]1O[C@@H](n2cnc3c(NC4CCCC4)nc(Cl)nc32)[C@H](O)[C@@H]1O)N[C@@H](C)C(=O)OC(C)C` [Example P]: the IC50 is > 1000 nM.

`O=C(CP(=O)(O)O)NC[C@H]1O[C@@H](n2cnc3c(NC4CCCC4)nc(Cl)nc32)[C@H](O)[C@@H]1O` [A] had a half-maximal inhibitory concentration (IC50) of 100 to 1000 nM. As for `CN(C[C@H]1O[C@@H](n2cnc3c(NC4CCCC4)nc(Cl)nc32)[C@H](O)[C@@H]1O)C(=O)CP1(=O)Nc2ccccc2CO1` (stereo partly drawn) [R], the figure is > 1000 nM. As for `CC(C)OC(=O)OCOP(=O)(CC(=O)N(C)C[C@H]1O[C@@H](n2cnc3c(NC4CCCC4)nc(Cl)nc32)[C@H](O)[C@@H]1O)OCOC(=O)OC(C)C` [W], the figure is > 1000 nM. With `CCN(C[C@H]1O[C@@H](n2cnc3c(N(C)C4CCCC4)nc(Cl)nc32)[C@H](O)[C@@H]1O)C(=O)CP(=O)(O)O` [H], the half-inhibitory concentration (IC50) is < 100 nM. Regarding `O=C(O)CN(C[C@H]1O[C@@H](n2cnc3c(NC4CCCC4)nc(Cl)nc32)[C@H](O)[C@@H]1O)C(=O)CP(=O)(O)O` [E], the 50% inhibitory concentration (IC50) was < 100 nM.

`CC(C)OC(=O)OCOP(=O)(O)CC(=O)N(C)C[C@H]1O[C@@H](n2cnc3c(N[C@H]4CCOC4)nc(Cl)nc32)[C@H](O)[C@@H]1O` [AN]: the half-maximal inhibitory concentration (IC50) was > 1000 nM.

On to `COC(=O)OCOP(=O)(CC(=O)N(C)C[C@H]1O[C@@H](n2cnc3c(NC4CCCC4)nc(Cl)nc32)[C@H](O)[C@@H]1O)OCOC(=O)OC` [AA], for which the concentration for half-maximal inhibition (IC50) was > 1000 nM. As for `CN(C[C@H]1O[C@@H](n2cnc3c(NC4CCCC4)nc(Cl)nc32)[C@H](O)[C@@H]1O)C(=O)CP(=O)(OCOC(=O)C(C)(C)C)OCOC(=O)C(C)(C)C` [AG], the figure is > 1000 nM; as for `CC(C)OC(=O)[C@H](C)NP(=O)(CC(=O)N(C)C[C@H]1O[C@@H](n2cnc3c(NC4CCCC4)nc(Cl)nc32)[C@H](O)[C@@H]1OC(=O)C(C)C)Oc1ccccc1` (stereo partly drawn) [O], > 1000 nM.

The IC50 is the point on the concentration scale where inhibition reaches its midpoint. A lower IC50 goes with greater potency.
